# Tested on: HDQ-P1
# Assay: normalised response (% of control), CellTiter-Glo; higher = more viable cells (100 = DMSO, 0 = benzethonium chloride kill control)
# Conditions: incubation time: 72 h
# Protocol: (§1)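 DSRT, 72 h incubation, CellTox Green / CellTiter-Glo readout. Signal is normalised to DMSO and benzethonium chloride controls. Value is the normalised response at dose 3.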
row,Compound,normalised response
1,NC(=O)c1ccc(I)c([N+](=O)[O-])c1 [Iniparib] (100 nM),95%
2,CCc1c2c(nc3ccc(OC(=O)N4CCC(N5CCCCC5)CC4)cc13)-c1cc3c(c(=O)n1C2)COC(=O)[C@]3(O)CC [Irinotecan] (100 nM),96.5%
3,O=C(Nc1cccnc1)N1CCC(Cc2cccc(Oc3ccc(C(F)(F)F)cn3)c2)CC1 [PF-3845] (100 nM),96.7%
4,Cc1[nH]c2ccccc2c1CCNCc1ccc(/C=C/C(=O)NO)cc1 [Panobinostat] (10 nM),93.3%
5,COCC1(CO)C(=O)C2CCN1CC2 (stereo not drawn) [Prima-1 Met] (100 nM),103%

# Tested on: HCC1599
# Assay: as above
# Conditions: incubation time: 72 h
# Protocol: as §1
row,Compound,normalised response
1,CCn1c(-c2nonc2N)nc2cnc(Oc3cccc(NC(=O)c4ccc(OCCN5CCOCC5)cc4)c3)cc21 (100 nM),95.9%
2,CNC(=O)c1ccc(N2C(=S)N(c3ccc(C#N)c(C(F)(F)F)c3)C(=O)C2(C)C)cc1F [Enzalutamide] (100 nM),113%
3,C=C1C[C@@H]2[C@H](CC[C@]3(C)C(=O)CC[C@@H]23)[C@@]2(C)C=CC(=O)C=C12 [Exemestane] (100 nM),104%
4,Cc1cc(Nc2cc(CN3CCOCC3)c3nc(C)c(Cc4ccc(Cl)cc4F)n3n2)n[nH]1 [Gandotinib] (100 nM),85.9%
5,NC(=O)c1ccc(I)c([N+](=O)[O-])c1 [Iniparib] (100 nM),94%
6,CCc1c2c(nc3ccc(OC(=O)N4CCC(N5CCCCC5)CC4)cc13)-c1cc3c(c(=O)n1C2)COC(=O)[C@]3(O)CC [Irinotecan] (100 nM),112%
7,O=C(Nc1cccnc1)N1CCC(Cc2cccc(Oc3ccc(C(F)(F)F)cn3)c2)CC1 [PF-3845] (100 nM),85%
8,Cc1[nH]c2ccccc2c1CCNCc1ccc(/C=C/C(=O)NO)cc1 [Panobinostat] (10 nM),94.8%
9,COCC1(CO)C(=O)C2CCN1CC2 (stereo not drawn) [Prima-1 Met] (100 nM),119%

# Tested on: CAL-120
# Assay: as above
# Conditions: incubation time: 72 h
# Protocol: as §1
row,Compound,normalised response
1,CCn1c(-c2nonc2N)nc2cnc(Oc3cccc(NC(=O)c4ccc(OCCN5CCOCC5)cc4)c3)cc21 (100 nM),81.9%
2,CNC(=O)c1ccc(N2C(=S)N(c3ccc(C#N)c(C(F)(F)F)c3)C(=O)C2(C)C)cc1F [Enzalutamide] (100 nM),106%
3,C=C1C[C@@H]2[C@H](CC[C@]3(C)C(=O)CC[C@@H]23)[C@@]2(C)C=CC(=O)C=C12 [Exemestane] (100 nM),106%
4,Cc1cc(Nc2cc(CN3CCOCC3)c3nc(C)c(Cc4ccc(Cl)cc4F)n3n2)n[nH]1 [Gandotinib] (100 nM),96.1%
5,NC(=O)c1ccc(I)c([N+](=O)[O-])c1 [Iniparib] (100 nM),89.6%
6,CCc1c2c(nc3ccc(OC(=O)N4CCC(N5CCCCC5)CC4)cc13)-c1cc3c(c(=O)n1C2)COC(=O)[C@]3(O)CC [Irinotecan] (100 nM),92.5%
7,O=C(Nc1cccnc1)N1CCC(Cc2cccc(Oc3ccc(C(F)(F)F)cn3)c2)CC1 [PF-3845] (100 nM),102%
8,Cc1[nH]c2ccccc2c1CCNCc1ccc(/C=C/C(=O)NO)cc1 [Panobinostat] (10 nM),85.3%
9,COCC1(CO)C(=O)C2CCN1CC2 (stereo not drawn) [Prima-1 Met] (100 nM),99.3%

# Tested on: MDA-MB-468
# Assay: as above
# Conditions: incubation time: 72 h
# Protocol: as §1
row,Compound,normalised response
1,CCn1c(-c2nonc2N)nc2cnc(Oc3cccc(NC(=O)c4ccc(OCCN5CCOCC5)cc4)c3)cc21 (100 nM),91.4%
2,CNC(=O)c1ccc(N2C(=S)N(c3ccc(C#N)c(C(F)(F)F)c3)C(=O)C2(C)C)cc1F [Enzalutamide] (100 nM),102%
3,C=C1C[C@@H]2[C@H](CC[C@]3(C)C(=O)CC[C@@H]23)[C@@]2(C)C=CC(=O)C=C12 [Exemestane] (100 nM),101%
4,Cc1cc(Nc2cc(CN3CCOCC3)c3nc(C)c(Cc4ccc(Cl)cc4F)n3n2)n[nH]1 [Gandotinib] (100 nM),97.9%
5,NC(=O)c1ccc(I)c([N+](=O)[O-])c1 [Iniparib] (100 nM),85.2%
6,CCc1c2c(nc3ccc(OC(=O)N4CCC(N5CCCCC5)CC4)cc13)-c1cc3c(c(=O)n1C2)COC(=O)[C@]3(O)CC [Irinotecan] (100 nM),111%
7,O=C(Nc1cccnc1)N1CCC(Cc2cccc(Oc3ccc(C(F)(F)F)cn3)c2)CC1 [PF-3845] (100 nM),107%
8,Cc1[nH]c2ccccc2c1CCNCc1ccc(/C=C/C(=O)NO)cc1 [Panobinostat] (10 nM),84.6%
9,COCC1(CO)C(=O)C2CCN1CC2 (stereo not drawn) [Prima-1 Met] (100 nM),95.8%

# Tested on: MFM-223
# Assay: as above
# Conditions: incubation time: 72 h
# Protocol: as §1
row,Compound,normalised response
1,CCn1c(-c2nonc2N)nc2cnc(Oc3cccc(NC(=O)c4ccc(OCCN5CCOCC5)cc4)c3)cc21 (100 nM),98%
2,CNC(=O)c1ccc(N2C(=S)N(c3ccc(C#N)c(C(F)(F)F)c3)C(=O)C2(C)C)cc1F [Enzalutamide] (100 nM),104%
3,C=C1C[C@@H]2[C@H](CC[C@]3(C)C(=O)CC[C@@H]23)[C@@]2(C)C=CC(=O)C=C12 [Exemestane] (100 nM),106%
4,Cc1cc(Nc2cc(CN3CCOCC3)c3nc(C)c(Cc4ccc(Cl)cc4F)n3n2)n[nH]1 [Gandotinib] (100 nM),93.4%
5,NC(=O)c1ccc(I)c([N+](=O)[O-])c1 [Iniparib] (100 nM),82.7%
6,CCc1c2c(nc3ccc(OC(=O)N4CCC(N5CCCCC5)CC4)cc13)-c1cc3c(c(=O)n1C2)COC(=O)[C@]3(O)CC [Irinotecan] (100 nM),106%
7,O=C(Nc1cccnc1)N1CCC(Cc2cccc(Oc3ccc(C(F)(F)F)cn3)c2)CC1 [PF-3845] (100 nM),110%
8,Cc1[nH]c2ccccc2c1CCNCc1ccc(/C=C/C(=O)NO)cc1 [Panobinostat] (10 nM),90.8%
9,COCC1(CO)C(=O)C2CCN1CC2 (stereo not drawn) [Prima-1 Met] (100 nM),107%

# Tested on: HCC1143
# Assay: as above
# Conditions: incubation time: 72 h
# Protocol: as §1
row,Compound,normalised response
1,CCn1c(-c2nonc2N)nc2cnc(Oc3cccc(NC(=O)c4ccc(OCCN5CCOCC5)cc4)c3)cc21 (100 nM),103%
2,CNC(=O)c1ccc(N2C(=S)N(c3ccc(C#N)c(C(F)(F)F)c3)C(=O)C2(C)C)cc1F [Enzalutamide] (100 nM),101%
3,C=C1C[C@@H]2[C@H](CC[C@]3(C)C(=O)CC[C@@H]23)[C@@]2(C)C=CC(=O)C=C12 [Exemestane] (100 nM),104%
4,Cc1cc(Nc2cc(CN3CCOCC3)c3nc(C)c(Cc4ccc(Cl)cc4F)n3n2)n[nH]1 [Gandotinib] (100 nM),109%
5,NC(=O)c1ccc(I)c([N+](=O)[O-])c1 [Iniparib] (100 nM),96.9%
6,CCc1c2c(nc3ccc(OC(=O)N4CCC(N5CCCCC5)CC4)cc13)-c1cc3c(c(=O)n1C2)COC(=O)[C@]3(O)CC [Irinotecan] (100 nM),96%
7,O=C(Nc1cccnc1)N1CCC(Cc2cccc(Oc3ccc(C(F)(F)F)cn3)c2)CC1 [PF-3845] (100 nM),107%
8,Cc1[nH]c2ccccc2c1CCNCc1ccc(/C=C/C(=O)NO)cc1 [Panobinostat] (10 nM),88.5%
9,COCC1(CO)C(=O)C2CCN1CC2 (stereo not drawn) [Prima-1 Met] (100 nM),103%

# Tested on: CAL-51
# Assay: as above
# Conditions: incubation time: 72 h
# Protocol: as §1
row,Compound,normalised response
1,CCn1c(-c2nonc2N)nc2cnc(Oc3cccc(NC(=O)c4ccc(OCCN5CCOCC5)cc4)c3)cc21 (100 nM),80%
2,CNC(=O)c1ccc(N2C(=S)N(c3ccc(C#N)c(C(F)(F)F)c3)C(=O)C2(C)C)cc1F [Enzalutamide] (100 nM),70.4%
3,C=C1C[C@@H]2[C@H](CC[C@]3(C)C(=O)CC[C@@H]23)[C@@]2(C)C=CC(=O)C=C12 [Exemestane] (100 nM),111%
4,Cc1cc(Nc2cc(CN3CCOCC3)c3nc(C)c(Cc4ccc(Cl)cc4F)n3n2)n[nH]1 [Gandotinib] (100 nM),94.3%
5,NC(=O)c1ccc(I)c([N+](=O)[O-])c1 [Iniparib] (100 nM),117%
6,CCc1c2c(nc3ccc(OC(=O)N4CCC(N5CCCCC5)CC4)cc13)-c1cc3c(c(=O)n1C2)COC(=O)[C@]3(O)CC [Irinotecan] (100 nM),109%
7,O=C(Nc1cccnc1)N1CCC(Cc2cccc(Oc3ccc(C(F)(F)F)cn3)c2)CC1 [PF-3845] (100 nM),106%
8,Cc1[nH]c2ccccc2c1CCNCc1ccc(/C=C/C(=O)NO)cc1 [Panobinostat] (10 nM),73.7%
9,COCC1(CO)C(=O)C2CCN1CC2 (stereo not drawn) [Prima-1 Met] (100 nM),99.6%

# Tested on: MDA-MB-231
# Assay: as above
# Conditions: incubation time: 72 h
# Protocol: as §1
row,Compound,normalised response
1,CCn1c(-c2nonc2N)nc2cnc(Oc3cccc(NC(=O)c4ccc(OCCN5CCOCC5)cc4)c3)cc21 (100 nM),86.5%
2,CNC(=O)c1ccc(N2C(=S)N(c3ccc(C#N)c(C(F)(F)F)c3)C(=O)C2(C)C)cc1F [Enzalutamide] (100 nM),95.9%
3,C=C1C[C@@H]2[C@H](CC[C@]3(C)C(=O)CC[C@@H]23)[C@@]2(C)C=CC(=O)C=C12 [Exemestane] (100 nM),107%
4,Cc1cc(Nc2cc(CN3CCOCC3)c3nc(C)c(Cc4ccc(Cl)cc4F)n3n2)n[nH]1 [Gandotinib] (100 nM),98.8%
5,NC(=O)c1ccc(I)c([N+](=O)[O-])c1 [Iniparib] (100 nM),90.9%
6,CCc1c2c(nc3ccc(OC(=O)N4CCC(N5CCCCC5)CC4)cc13)-c1cc3c(c(=O)n1C2)COC(=O)[C@]3(O)CC [Irinotecan] (100 nM),96.2%
7,O=C(Nc1cccnc1)N1CCC(Cc2cccc(Oc3ccc(C(F)(F)F)cn3)c2)CC1 [PF-3845] (100 nM),115%
8,Cc1[nH]c2ccccc2c1CCNCc1ccc(/C=C/C(=O)NO)cc1 [Panobinostat] (10 nM),88.4%
9,COCC1(CO)C(=O)C2CCN1CC2 (stereo not drawn) [Prima-1 Met] (100 nM),97.5%

# Tested on: CAL-148
# Assay: as above
# Conditions: incubation time: 72 h
# Protocol: as §1
row,Compound,normalised response
1,CCn1c(-c2nonc2N)nc2cnc(Oc3cccc(NC(=O)c4ccc(OCCN5CCOCC5)cc4)c3)cc21 (100 nM),99.6%
2,CNC(=O)c1ccc(N2C(=S)N(c3ccc(C#N)c(C(F)(F)F)c3)C(=O)C2(C)C)cc1F [Enzalutamide] (100 nM),106%
3,C=C1C[C@@H]2[C@H](CC[C@]3(C)C(=O)CC[C@@H]23)[C@@]2(C)C=CC(=O)C=C12 [Exemestane] (100 nM),109%
4,Cc1cc(Nc2cc(CN3CCOCC3)c3nc(C)c(Cc4ccc(Cl)cc4F)n3n2)n[nH]1 [Gandotinib] (100 nM),105%
5,NC(=O)c1ccc(I)c([N+](=O)[O-])c1 [Iniparib] (100 nM),84.8%
6,CCc1c2c(nc3ccc(OC(=O)N4CCC(N5CCCCC5)CC4)cc13)-c1cc3c(c(=O)n1C2)COC(=O)[C@]3(O)CC [Irinotecan] (100 nM),96.6%
7,O=C(Nc1cccnc1)N1CCC(Cc2cccc(Oc3ccc(C(F)(F)F)cn3)c2)CC1 [PF-3845] (100 nM),113%
8,Cc1[nH]c2ccccc2c1CCNCc1ccc(/C=C/C(=O)NO)cc1 [Panobinostat] (10 nM),83.1%
9,COCC1(CO)C(=O)C2CCN1CC2 (stereo not drawn) [Prima-1 Met] (100 nM),112%

# Tested on: BT-549
# Assay: as above
# Conditions: incubation time: 72 h
# Protocol: as §1
row,Compound,normalised response
1,CCn1c(-c2nonc2N)nc2cnc(Oc3cccc(NC(=O)c4ccc(OCCN5CCOCC5)cc4)c3)cc21 (100 nM),88.6%
2,CNC(=O)c1ccc(N2C(=S)N(c3ccc(C#N)c(C(F)(F)F)c3)C(=O)C2(C)C)cc1F [Enzalutamide] (100 nM),97.1%
3,C=C1C[C@@H]2[C@H](CC[C@]3(C)C(=O)CC[C@@H]23)[C@@]2(C)C=CC(=O)C=C12 [Exemestane] (100 nM),101%
4,Cc1cc(Nc2cc(CN3CCOCC3)c3nc(C)c(Cc4ccc(Cl)cc4F)n3n2)n[nH]1 [Gandotinib] (100 nM),94.4%
5,NC(=O)c1ccc(I)c([N+](=O)[O-])c1 [Iniparib] (100 nM),99%
6,CCc1c2c(nc3ccc(OC(=O)N4CCC(N5CCCCC5)CC4)cc13)-c1cc3c(c(=O)n1C2)COC(=O)[C@]3(O)CC [Irinotecan] (100 nM),95.3%
